Assay results published in EP4360456A1, “PHYTOSANITARY FORMULATION” (Universidad de Almeria, priority 2021, dated 2022).
Read-outs that look alike come from different tables or passages of the source.

Tested on: fungus F. oxysporum
Assay: microbe, parasite or virus in culture
Assay type: cell-based
Settings: for inhibition at 5000 µg/mL / inhibition at 2000 µg/mL / inhibition at 7500 µg/mL / inhibition at 10000 µg/mL: Fusarium oxysporum
Procedure: The % of inhibition is calculated with respect to the control based on the areas of growth of the fungus according to the following equation: % of inhibition with respect to FOM = 100−((AP)/(AC)*100) [formula] wherein: • AP: area of growth of the fungus in the target dish. • AC: Area of growth of the fungus in the control dish.

[1] = solution at 5 g/L, Table 3, read-out: % of inhibition
[2] = Concentration 2 g/L, Table 4 concentration screening, read-out: Percentages of inhibition
[3] = Concentration 5 g/L, Table 4 concentration screening, read-out: Percentages of inhibition
[4] = Concentration 7.5 g/L, Table 4 concentration screening, read-out: Percentages of inhibition
[5] = Concentration 10 g/L, Table 4 concentration screening, read-out: Percentages of inhibition

## CCO [Ethanol]
read-out: % of inhibition
  inhibition at 5000 µg/mL: 3.07 ± 0.45%

## O=C[O-].[Na+] [Sodium formate]
Concentration 2 g/L, Table 4 concentration screening
  Percentages of inhibition: 5.66 ± 0.41
Concentration 5 g/L, Table 4 concentration screening
  Percentages of inhibition: 12.33 ± 0.98
Concentration 7.5 g/L, Table 4 concentration screening
  Percentages of inhibition: 12.54 ± 1.54
Concentration 10 g/L, Table 4 concentration screening
  Percentages of inhibition: 12.14 ±0.52
Solution at 5 g/L, Table 3
  % of inhibition: 13.38 ± 0.95%

## OCC(O)CO [Glycerol]
[1]
  inhibition at 5000 µg/mL: 1.85 ± 0.1%

## N.O=CO [Ammonium formate]
Solution at 5 g/L, Table 3
  % of inhibition: 1.54 ± 0.15%

## C[C@H](N)C(=O)O [Alanine, L-Alanine]
[2]
  inhibition at 2000 µg/mL: 9.24 ± 0.85%
[3]
  inhibition at 5000 µg/mL: 9.48 ± 1.06%
[4]
  inhibition at 7500 µg/mL: 13.3 ± 1.01%
[5]
  inhibition at 10000 µg/mL: 14.4 ± 0.87%
[1]
  inhibition at 5000 µg/mL: 9.23 ± 0.71%

## N[C@@H](Cc1ccccc1)C(=O)O [Phenylalanine, L-Phenylalanine]
[2]
  inhibition at 2000 µg/mL: 17 ± 2.24%
[3]
  inhibition at 5000 µg/mL: 19.5 ± 1.85%
[4]
  inhibition at 7500 µg/mL: 19.2 ± 1.65%
[5]
  inhibition at 10000 µg/mL: 21.7 ± 1.74%
[1]
  inhibition at 5000 µg/mL: 16.1 ± 1.05%

## CC(=O)O [Sodium acetate, Anhydrous sodium acetate]
read-out: % of inhibition
  inhibition at 5000 µg/mL: 1.54 ± 0.05%
